Biological target: IDO1 (Homo sapiens, UniProt P14902)
Test: IDO1 Cellular Assay in Hela Cells Stimulated with IFNγ
Format: cell-based
Details: IFNγ 100 ng/mL, 300 uM L-tryptophan, about 48 hours, fluorescence readout, read-out: IDO1 HELA Cell Assay, IC50
Experimental: Biological Assays IDO1 Cellular Assay in Hela Cells Stimulated with IFNγ
Hela cells were cultured in complete Hela culture medium ([…], 10% heat-inactivated fetal bovine serum) and expanded to about 1×10^9 cells. The cells were then collected and frozen down at 10×10^6 cells/vial in 1 mL frozen medium (90% complete Hela culture medium, 10% DMSO).
Compounds to be tested were serially diluted in ten 3-fold steps in DMSO starting from 10 mM DMSO stocks in Echo low volume plate(s). Compound dilutions or DMSO alone were then dispensed from the dilution plate(s) into Greiner black 384-well assay plate(s) (catalog #781086, 50 nL/well) using an Echo 550 acoustic liquid handler (Labcyte).
Frozen Hela cells were thawed and transferred into Hela assay medium (99% complete Hela culture medium, 1% Pen/Strep) with 20 mL medium/vial of cells. The cells were spun down at 250 g in a table top centrifuge for 5 min and suspended in same volume of Hela assay medium. […] Sterile L-tryptophan were added to the cells with final concentration of 300 uM L-tryptophan. A small aliquot (2 mL/plate) of Hela cells were set aside and were not treated with IFNγ, to serve as the Max-E control. The rest of Hela cells were added with sterile IFNγ (Cat #285-IF, R & D systems) with a final concentration of 100 ng/mL.
Hela cells with and without IFNγ were dispensed to the respective wells of 384-well assay plates containing the compounds. The plates were incubated for about 48 hours at a 37° C., 5% CO2 incubator. Afterwards, 12 μL of 0.5 M methyl isonipecotate in dimethyl sulfoxide were added into each well and the plates were sealed and incubated at 37° C. without CO2 overnight. The plates were centrifuged for 1 min at 200×g. The resulting fluorescence was measured in a Spectramax plate reader (Molecular Devices) with a 400 nm excitation filter and a 510 nm emission filter.
Potencies were calculated by […] least squares fit to the four parameter logistic IC50 equation.

IDO1, sequence (P14902 whole entry): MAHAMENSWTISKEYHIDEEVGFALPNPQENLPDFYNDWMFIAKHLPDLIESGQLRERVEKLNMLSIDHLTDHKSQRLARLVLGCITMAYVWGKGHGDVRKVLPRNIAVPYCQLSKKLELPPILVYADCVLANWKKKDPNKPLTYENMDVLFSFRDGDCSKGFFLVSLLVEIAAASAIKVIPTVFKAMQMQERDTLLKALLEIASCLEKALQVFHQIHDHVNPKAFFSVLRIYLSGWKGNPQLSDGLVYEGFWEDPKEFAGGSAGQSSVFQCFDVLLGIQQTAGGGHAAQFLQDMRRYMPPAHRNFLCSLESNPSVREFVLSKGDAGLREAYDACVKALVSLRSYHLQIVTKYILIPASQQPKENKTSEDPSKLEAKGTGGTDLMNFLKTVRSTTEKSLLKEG

| IC50 [nM] | Compound |
| --- | --- |
| 2.91 | CC(C(=O)Nc1ccc(Cl)nc1)C12CC(NC(=O)c3ccc4c(c3)CC4)(C1)C2 (centres unmarked) [Example 18, N-(3-(1-((6-chloropyridin-3-yl)amino)-1-oxopropan-2-yl)bicyclo[1.1.1]pentan-1-yl)bicyclo[4.2.0]octa-1(6),2,4-triene-3-carboxamide] |
| 2.35 | C[C@@H](C(=O)Nc1ccc(F)cc1)C12CC(NC(=O)c3cc(F)cc(Cl)c3)(C1)C2 [Example 40, 3-chloro-5-fluoro-N-[3-[(1R)-2-(4-fluoroanilino)-1-methyl-2-oxo-ethyl]-1-bicyclo[1.1.1]pentanyl]benzamide] |
| 98 | COc1cc(C(=O)NC23CC([C@H](C)C(=O)Nc4ccc(F)cc4)(C2)C3)ccc1F [Example 67, 4-fluoro-N-[3-[(1S)-2-(4-fluoroanilino)-1-methyl-2-oxo-ethyl]-1-bicyclo[1.1.1]pentanyl]-3-methoxy-benzamide] |
| 259 | CC(C(=O)Nc1ccc(F)cc1)C12CC(NC(=O)c3ccc(C(F)(F)F)cn3)(C1)C2 (centres unmarked) [Example 133, N-[3-[2-(4-fluoroanilino)-1-methyl-2-oxo-ethyl]-1-bicyclo[1.1.1]pentanyl]-5-(trifluoromethyl)pyridin-1-ium-2-carboxamide] |
| 89.4 | Cc1ccnc(C(=O)NC23CC(C(C)C(=O)Nc4ccc(F)cc4)(C2)C3)c1 (centres unmarked) [Example 118, N-[3-[2-(4-fluoroanilino)-1-methyl-2-oxo-ethyl]-1-bicyclo[1.1.1]pentanyl]-4-methyl-pyridin-1-ium-2-carboxamide] |
| 2.28 | Cc1ccc(C(=O)NC23CC([C@@H](C)C(=O)Nc4ccc(F)cc4)(C2)C3)cc1Cl [Example 44, 3-chloro-N-[3-[(1R)-2-(4-fluoroanilino)-1-methyl-2-oxo-ethyl]-1-bicyclo[1.1.1]pentanyl]-4-methyl-benzamide] |
| 123 | Cc1c(Cl)cccc1C(=O)NC12CC([C@H](C)C(=O)Nc3ccc(F)cc3)(C1)C2 [Example 53, 3-chloro-N-[3-[(1S)-2-(4-fluoroanilino)-1-methyl-2-oxo-ethyl]-1-bicyclo[1.1.1]pentanyl]-2-methyl-benzamide] |
| 40.4 | CC(C(=O)Nc1ccc(F)cc1)C12CC(NC(=O)c3cc(Cl)ccn3)(C1)C2 (centres unmarked) [Example 112, 4-chloro-N-[3-[2-(4-fluoroanilino)-1-methyl-2-oxo-ethyl]-1-bicyclo[1.1.1]pentanyl]pyridin-1-ium-2-carboxamide] |
| 19.2 | CC(C)(C(=O)Nc1ccc(F)cc1)C12CC(NC(=O)c3cccc(Cl)c3)(C1)C2 [Example 102, 3-Chloro-N-(3-(1-((4-fluorophenyl)amino)-2-methyl-1-oxopropan-2-yl)bicyclo[1.1.1]pentan-1-yl)benzamide] |
| 11.2 | CC(C(=O)Nc1ccc(F)cc1)C12CC(NC(=O)c3cccc(OC(F)(F)F)c3)(C1)C2 (centres unmarked) [Example 109, N-[3-[2-(4-fluoroanilino)-1-methyl-2-oxo-ethyl]-1-bicyclo[1.1.1]pentanyl]-3-(trifluoromethoxy)benzamide] |
| 55.6 | Cc1cc(C(=O)NC23CC([C@H](C)C(=O)Nc4ccc(F)cc4)(C2)C3)ccc1C#N [Example 151, (S)-4-cyano-N-(3-(1-((4-fluorophenyl)amino)-1-oxopropan-2-yl)bicyclo[1.1.1]pentan-1-yl)-3-methylbenzamide] |
| 15.7 | Cc1ccnc(C(=O)NC23CC([C@H](C)C(=O)Nc4ccc(F)cc4)(C2)C3)n1 [Example 57, N-[3-[(1S)-2-(4-fluoroanilino)-1-methyl-2-oxo-ethyl]-1-bicyclo[1.1.1]pentanyl]-4-methyl-pyrimidin-1-ium-2-carboxamide] |
| 315 | C[C@@H](C(=O)Nc1cnc(F)c(F)c1)C12CC(NC(=O)c3ccc(Cl)c(Cl)c3)(C1)C2 [Example 88, (R)-3,4-Dichloro-N-(3-(1-((5,6-difluoropyridin-3-yl)amino)-1-oxopropan-2-yl)bicyclo[1.1.1]pentan-1-yl)benzamide] |
| 107 | O=C(NC12CC(C3(NC(=O)c4ccc(F)cc4)CC3)(C1)C2)OCc1ccccc1 [Example 23, Benzyl (3-(1-(4-fluorobenzamido)cyclopropyl)bicyclo[1.1.1]pentan-1-yl)carbamate] |
